Data: PubChem BioAssay (NCI)
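Dose response: 5 concentrations. Exposure: 48 h. Format: 96-well plates. Endpoint: linear interpolation; highest concentration if not reached. TGI is the concentration that stops growth completely.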

Columns and labels:
Assay in all cases: inhibition of tumour cell growth, NCI panel, 48 h
NCI-H23 lung = test system: NCI-H23 lung
OVCAR-3 ovarian = test system: OVCAR-3 ovarian
SF-539 CNS = test system: SF-539 CNS
NCI-H460 lung = test system: NCI-H460 lung
A498 renal = test system: A498 renal
UACC-62 melanoma = test system: UACC-62 melanoma
HS 578T breast = test system: HS 578T breast
HT29 colon = test system: HT29 colon
CAKI-1 renal = test system: CAKI-1 renal
PC-3 prostate = test system: PC-3 prostate
CCRF-CEM leukemia = test system: CCRF-CEM leukemia
BT-549 breast = test system: BT-549 breast
HCT-116 colon = test system: HCT-116 colon
MDA-MB-231 breast = test system: MDA-MB-231 breast
COLO 205 colon = test system: COLO 205 colon
DU-145 prostate = test system: DU-145 prostate
MOLT-4 leukemia = test system: MOLT-4 leukemia
MCF7 breast = test system: MCF7 breast
SK-MEL-5 melanoma = test system: SK-MEL-5 melanoma
SNB-75 CNS = test system: SNB-75 CNS
SR leukemia = test system: SR leukemia
HCC-2998 colon = test system: HCC-2998 colon
SN12C renal = test system: SN12C renal
UO-31 renal = test system: UO-31 renal
KM12 colon = test system: KM12 colon
NCI-H226 lung = test system: NCI-H226 lung
OVCAR-4 ovarian = test system: OVCAR-4 ovarian
HL-60(TB) leukemia = test system: HL-60(TB) leukemia
SW-620 colon = test system: SW-620 colon
SF-295 CNS = test system: SF-295 CNS
K-562 leukemia = test system: K-562 leukemia
U251 CNS = test system: U251 CNS
OVCAR-5 ovarian = test system: OVCAR-5 ovarian
SNB-19 CNS = test system: SNB-19 CNS
UACC-257 melanoma = test system: UACC-257 melanoma
OVCAR-8 ovarian = test system: OVCAR-8 ovarian
SK-MEL-28 melanoma = test system: SK-MEL-28 melanoma
RXF 393 renal = test system: RXF 393 renal
SK-OV-3 ovarian = test system: SK-OV-3 ovarian
SK-MEL-2 melanoma = test system: SK-MEL-2 melanoma
786-0 renal = test system: 786-0 renal
MALME-3M melanoma = test system: MALME-3M melanoma
RPMI-8226 leukemia = test system: RPMI-8226 leukemia
SF-268 CNS = test system: SF-268 CNS
TK-10 renal = test system: TK-10 renal
NCI-H522 lung = test system: NCI-H522 lung
HCT-15 colon = test system: HCT-15 colon
LOX IMVI melanoma = test system: LOX IMVI melanoma
EKVX NSCLC = test system: EKVX NSCLC
HOP-62 NSCLC = test system: HOP-62 NSCLC
MDA-MB-435 = test system: MDA-MB-435
ACHN renal = test system: ACHN renal
A549 NSCLC = test system: A549 NSCLC
T-47D breast = test system: T-47D breast
NCI/ADR-RES ovarian = test system: NCI/ADR-RES ovarian
M14 melanoma = test system: M14 melanoma
HOP-92 NSCLC = test system: HOP-92 NSCLC
MDA-N = test system: MDA-N
IGROV1 ovarian = test system: IGROV1 ovarian

O=C1C(F)=CC(COC(c2ccccc2)(c2ccccc2)c2ccccc2)OC1n1cc(F)c(=O)[nH]c1=O (stereo unspecified)
TGI (NCI-H23 lung): 3.91 µM
TGI (OVCAR-3 ovarian): 3.21 µM
TGI (SF-539 CNS): 3.75 µM
TGI (NCI-H460 lung): 7.68 µM
TGI (A498 renal): 24.4 µM
TGI (UACC-62 melanoma): 3.62 µM
TGI (HS 578T breast): > 45 µM
TGI (HT29 colon): 1.59 µM
TGI (CAKI-1 renal): 9.09 µM
TGI (PC-3 prostate): 4.69 µM
TGI (CCRF-CEM leukemia): > 32 µM
TGI (BT-549 breast): 4.38 µM
TGI (HCT-116 colon): 10.9 µM
TGI (MDA-MB-231 breast): 18.5 µM
TGI (COLO 205 colon): > 21.5 µM
TGI (DU-145 prostate): > 34.2 µM
TGI (MOLT-4 leukemia): 4.81 µM
TGI (MCF7 breast): 4.96 µM
TGI (SK-MEL-5 melanoma): 3.22 µM
TGI (SNB-75 CNS): 10.9 µM
TGI (SR leukemia): > 100 µM
TGI (HCC-2998 colon): 14.1 µM
TGI (SN12C renal): 4.29 µM
TGI (UO-31 renal): 5.61 µM
TGI (KM12 colon): 7.72 µM
TGI (NCI-H226 lung): 5.51 µM
TGI (OVCAR-4 ovarian): 14.4 µM
TGI (HL-60(TB) leukemia): 10.2 µM
TGI (SW-620 colon): 4.26 µM
TGI (SF-295 CNS): 5.06 µM
TGI (K-562 leukemia): > 100 µM
TGI (U251 CNS): 4.71 µM
TGI (OVCAR-5 ovarian): 4.61 µM
TGI (SNB-19 CNS): 12.8 µM
TGI (UACC-257 melanoma): 4.72 µM
TGI (OVCAR-8 ovarian): 7 µM
TGI (SK-MEL-28 melanoma): 3.5 µM
TGI (RXF 393 renal): 4.11 µM
TGI (SK-OV-3 ovarian): 14.4 µM
TGI (SK-MEL-2 melanoma): 7.49 µM
TGI (786-0 renal): 3.92 µM
TGI (MALME-3M melanoma): 31.4 µM
TGI (RPMI-8226 leukemia): 1.31 µM
TGI (SF-268 CNS): 12.6 µM
TGI (TK-10 renal): 3.43 µM
TGI (NCI-H522 lung): 3.1 µM
TGI (HCT-15 colon): 5.95 µM
TGI (LOX IMVI melanoma): 3.54 µM
TGI (EKVX NSCLC): > 24.4 µM
TGI (HOP-62 NSCLC): 11.6 µM
TGI (MDA-MB-435): 3.18 µM
TGI (ACHN renal): 3.08 µM
TGI (A549 NSCLC): 6.12 µM
TGI (T-47D breast): > 28.6 µM
TGI (NCI/ADR-RES ovarian): 8.31 µM
TGI (M14 melanoma): 5.03 µM
TGI (HOP-92 NSCLC): 5.52 µM
TGI (MDA-N): 3.38 µM
TGI (IGROV1 ovarian): 6.79 µM

O=C(/C=C/c1ccsc1)c1ccco1
TGI (NCI-H23 lung): 30.9 µM
TGI (OVCAR-3 ovarian): 26.9 µM
TGI (SF-539 CNS): 32.5 µM
TGI (NCI-H460 lung): 33.4 µM
TGI (A498 renal): 17.8 µM
TGI (UACC-62 melanoma): 29.2 µM
TGI (HS 578T breast): 29.6 µM
TGI (HT29 colon): 22.8 µM
TGI (PC-3 prostate): 28.5 µM
TGI (CCRF-CEM leukemia): 22.9 µM
TGI (BT-549 breast): 33.2 µM
TGI (HCT-116 colon): 16.6 µM
TGI (MDA-MB-231 breast): 26.9 µM
TGI (COLO 205 colon): 32.8 µM
TGI (DU-145 prostate): 26.4 µM
TGI (MOLT-4 leukemia): 36 µM
TGI (MCF7 breast): 6.32 µM
TGI (SK-MEL-5 melanoma): 29.7 µM
TGI (SNB-75 CNS): 26 µM
TGI (SR leukemia): 9.14 µM
TGI (HCC-2998 colon): 26.3 µM
TGI (SN12C renal): 28.6 µM
TGI (UO-31 renal): 22.7 µM
TGI (KM12 colon): > 22.2 µM
TGI (NCI-H226 lung): > 63.6 µM
TGI (OVCAR-4 ovarian): > 37.2 µM
TGI (HL-60(TB) leukemia): 24 µM
TGI (SW-620 colon): 22 µM
TGI (SF-295 CNS): 27.2 µM
TGI (K-562 leukemia): > 56.4 µM
TGI (U251 CNS): 20.3 µM
TGI (OVCAR-5 ovarian): 34.9 µM
TGI (SNB-19 CNS): 28.8 µM
TGI (UACC-257 melanoma): 38.6 µM
TGI (OVCAR-8 ovarian): 24 µM
TGI (SK-MEL-28 melanoma): 25.4 µM
TGI (RXF 393 renal): 27 µM
TGI (SK-OV-3 ovarian): 42.3 µM
TGI (SK-MEL-2 melanoma): 38.9 µM
TGI (786-0 renal): 24.4 µM
TGI (RPMI-8226 leukemia): 16.1 µM
TGI (SF-268 CNS): 38.5 µM
TGI (TK-10 renal): 50.5 µM
TGI (NCI-H522 lung): 4.67 µM
TGI (HCT-15 colon): 20.1 µM
TGI (LOX IMVI melanoma): 14.5 µM
TGI (EKVX NSCLC): 36 µM
TGI (HOP-62 NSCLC): 28.1 µM
TGI (MDA-MB-435): > 50.3 µM
TGI (ACHN renal): 22.8 µM
TGI (A549 NSCLC): 11.7 µM
TGI (T-47D breast): 27.2 µM
TGI (NCI/ADR-RES ovarian): 40.5 µM
TGI (M14 melanoma): 24.2 µM
TGI (HOP-92 NSCLC): 30.6 µM
TGI (MDA-N): 25.2 µM
TGI (IGROV1 ovarian): 22.8 µM
